“Also recorded” adds a separate entry of the source.
How the values were obtained:
mice [1] = test: Example III: subcutaneous injection once a day for 12 days, mineralization and phosphate handling; type: in vivo; conditions: ASARM peptide 2 mg/kg/day
Protocol: (§1) FIGS. 14a and 14b show the Fractional Excretion of Phosphate (FEP) in two different experiments. In the experiment shown in FIG. 14a, each of three groups of mice was treated with one injection per day, over two weeks, of either: (a) vehicle alone, (b) etidronate (10 mg/kg/day), or (c) ASARM peptide (2 mg/kg/day). In the experiment show in FIG. 14b, each of four groups of mice was treated with two injections per day, over three weeks, of either: (a) vehicle alone, (b) etidronate (60 mg/kg/day), (c) ASARM (1.34 mg/kg/day; “ASARM-low”), or (d) ASARM (4.00 mg/kg/day; “ASARM-high”).
Three groups of 5 mice each received a subcutaneous injection once a day for 12 days. […] Calcein was given at 20 mg/kg/day on days 3, 5, 8, and 10 to allow visualization. The first group of mice were given an injection of vehicle only. The second group of mice were given etidronate at 10 mg/kg/day. The third group of mice were given ASARM peptide at 2 mg/kg/day.

mice [2] = test: Example II: subcutaneous injection twice a day for three weeks, serum and urine; type: in vivo; conditions: for serum phosphate: three weeks, vehicle 9.62; for % FEP vs control: two injections per day over three weeks, ASARM 1.34 and 4.00 mg/kg/day
Protocol: Four groups of 7 mice were injected subcutaneously twice a day for three weeks. The first group received vehicle only as a control, the second group received etidronate at 60 mg/kg/day, the third group received ASARM peptide at 1.3 mg/kg/day (“low ASARM”), and the fourth group received ASARM peptide at 4 mg/kg/day (“high ASARM”). Calcein/tetracycline was administered to the animals 4 days and 2 days before the end of the protocol for visualization purposes.
as §1

[3] = etidronate 10 mg/kg/day, listed as ASARM

ASARM peptide: ASARM peptide injected subcutaneously in Examples II and III; sequence and phosphorylation not stated; data resemble PO4-ASARM-peptide of Example VI (RDDSSESSDSGSSSESDGD)
serum alkaline phosphatase vs etidronate or vehicle groups (mice [1]): lower levels
increase in urinary calcium levels compared to the control (mice [1]; etidronate 10 mg/kg/day): 56.3%
inhibition in tooth mineralization (mice [1]; etidronate 10 mg/kg/day): 35.3%
inhibition of mineralization in femur (mice [1]; etidronate 10 mg/kg/day): 44.6%
inhibition of mineralization in tibia/femur (mice [1]; etidronate 10 mg/kg/day): 24.4%
mineralization of calvariae and long bones (mice [1]; etidronate 10 mg/kg/day): mineralization was inhibited
serum calcium vs control (mice [1]; etidronate 10 mg/kg/day): did not show a significantly elevated level
tubular reabsorption of phosphate vs vehicle (mice [1]; etidronate 10 mg/kg/day): higher
urinary phosphate excreted in a 24-hour period vs control (mice [1]; etidronate 10 mg/kg/day): far less phosphate
urine creatinine (mice [1]; etidronate 10 mg/kg/day): significant elevation; also recorded: significantly elevated
urine phosphate (mice [1]; etidronate 10 mg/kg/day): induced hypophosphaturia
Phosphate Excretion Index (PEI) (mice [1]; [3]): much lower PEI
mineralization of calvariae and long bones (mice [1]; [3]): greatly inhibited
renal phosphorous clearance vs vehicle (mice [1]; [3]): significantly less phosphate clearance
serum phosphate (mice [1]; [3]): induced hyperphosphatemia
urinary phosphate excreted in a 24-hour period vs control (mice [1]; [3]): far less
urine phosphate (mice [1]; [3]): hypophosphaturia
% FEP vs control (mice [1]; one injection per day over two weeks): significantly lower % FEP; also recorded: decrease in FEP
Fractional Excretion of Phosphate (FEP) vs vehicle (mice [1]; s.c. once a day 12 days, etidronate 10 mg/kg/day): significantly lower; also recorded: decreased
inhibition of mineralization of calvariae (mice [1]; s.c. once a day 12 days, etidronate 10 mg/kg/day, calcein): 62.0%
urinary phosphate excretion over 24 hours vs etidronate and control groups (mice [2]; ASARM 1.3 and 4 mg/kg/day): significantly higher
serum phosphate (mice [2]; ASARM high, 4 mg/kg/day s.c. twice a day): 10.01 mg/dL
serum phosphate (mice [2]; ASARM low, 1.3 mg/kg/day s.c. twice a day): 10.60 mg/dL
serum calcium vs vehicle (mice [2]; etidronate 60 mg/kg/day, ASARM 1.3 and 4 mg/kg/day): lower serum calcium levels
serum alkaline phosphatase vs vehicle (mice [2]; etidronate 60 mg/kg/day, ASARM 1.3 and 4 mg/kg/day (both groups)): levels similar to that of the vehicle; also recorded: levels similar to that of the control
% FEP vs control (mice [2]): increase in FEP
% FEP vs control (mice [2]; listed as ASARM): much higher % FEP levels

Reference: patent US20070099822A1, “Regulation of tissue mineralization and phosphate metabolism by asarm peptides” (priority 2003, published 2007)
